Data: PubChem BioAssay AID179 (DTP/NCI, 2004)
Values joined by “and” are separate entries in the source; they are usually repeats but may differ in a detail not shown here. Identical values can stand only once. Active and inactive are the calls of the source.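 Rule for the calls: active = compounds giving half or more protection of infected cells from virus-caused growth loss, again on retest; inactive = the rest.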 Where a SMILES comes first, the peptide text is derived from it. The star is where a group is joined. Boc = CC(C)(C)OC(=O)*

System: CEM cells HIV-1 protection, formazan growth assay
Assay: NCI AIDS Antiviral Assay
Settings: for IC50: measured here: growth of uninfected CEM cells
Method in brief: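 CEM (human) cells, HIV-1 infected vs uninfected, 5-point dosing, formazan growth read-out. Retest threshold 50% protection.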

| Structure (SMILES) | outcome | EC50 [µM] | IC50 |
| --- | --- | --- | --- |
| CCN(CC)CCN(C)CC(C)(C)C(=O)/C=C/c1ccccc1 | inactive | – | – |
| O=c1oc2cc(O)ccc2c(O)c1C(c1ccccc1F)c1c(O)c2ccc(O)cc2oc1=O | inactive | – | – |
| COc1cc(Br)c(CC2=NCCc3cc(OC)c(OC)cc32)cc1OC | inactive | – | – |
| O=C(NCCNCCCNC(=O)c1cc(-c2ccccc2)nc2ccccc12)c1cccc(OCc2ccccc2)c1OCc1ccccc1 | – | > 200 | 1.1 µM |
| O=C(O)C12C3C4C1C1C2C3C1(Br)C41OCCO1 (stereo not drawn) | – | > 832 | > 832 µM |
| CCCCCC(/C=C/[C@@H]1[C@H]2CC(=O)O[C@H]2C[C@H]1N1CCOCC1)OC1CCCO1 (stereo partly drawn) | – | > 316 | > 316 µM |
| NN=C1/C(=C\c2ccccc2)CCC/C1=C/c1ccccc1 | – | > 64.6 | > 64.6 µM |
| COc1cc(C)c(/C=C/C(=O)N2C(=O)OC[C@@H]2c2ccccc2)c(C)c1 | – | > 200 | 26.9 µM |
| CC(C)=CCC[C@@H](C)C1=C(Nc2ccccc2F)C(O)=C(C)C(=O)C1=O | – | > 200 | 2.14 µM |
| [O-]/N=[N+](/[O-])C1CCCCC1=[N+]1CCOCC1 (stereo not drawn) | – | > 200 | 32.4 µM |
| CCCCCOB(OCCCCC)OCCCCC | inactive | – | – |
| N=c1oc2c(O)c(O)ccc2cc1C(N)=O | – | > 8.32 | > 8.32 µM |
| CC(=O)N(C(C)=O)c1c(C)cc(-c2cccs2)oc1=O | – | > 200 | > 100 µM |
| CC(C)(C)OC(=O)C(C#N)C(=O)c1ccc(C(=O)O)[nH]1 (stereo not drawn) | – | > 200 | 23.4 µM |
| COc1cc2c(cc1O)C(Cc1ccc(Oc3cc(C[C@H]4c5cc(OC)c(OC)cc5CCN4C)ccc3OC)cc1)N(C)CC2 (stereo partly drawn) | inactive | – | – |
| Cc1nnc2sc(N/N=C/c3ccccc3)nn12 | – | > 200 | > 200 µM |
| O=C1CCC(=O)N1N1C(=O)CCC1=O | – | > 200 | > 200 µM |
| O=C(O)C1C(C(=O)O)C2C3C4C1C1C2C3C41 (stereo not drawn) | inactive | – | – |
| CC(=O)NCCSSCCCCS(=O)O | – | > 200 | 3.16 µM |
| CNC(=S)N/N=C1\CC(c2ccccc2)Oc2ccccc21 (stereo not drawn) | inactive | – | – |
| Clc1cccc2[nH]c(-c3ccncc3)nc12 | – | > 200 | > 200 µM |

| Structure (SMILES) | outcome | EC50 [µM] | IC50 |
| --- | --- | --- | --- |
| CCc1nc2ccc(C(F)(F)F)cc2[nH]c1=O | – | > 200 | 105 µM |
| C=C1CC2OC2(C(=O)O[C@H]2CCC3[C@@H]4CCC5=CC(=O)CC[C@]5(C)C4CC[C@@]32C)C1=O (stereo partly drawn) | – | > 200 | 7.24 µM |
| C(=C\c1ccc(-c2cn3cc(/C=C/C=N/NC4=NCCN4)ccc3n2)cc1)/C=N/NC1=NCCN1 | inactive | – | – |
| C#CCN(N=O)C(=O)NCCCCC(NC(=O)OCc1ccccc1)C(=O)OCc1ccccc1 (stereo not drawn) | – | > 28.2 | > 28.2 µM |
| O=C(CC(=O)n1nc(-c2ccccc2)c(N=Nc2ccccc2Cl)c1-c1ccccc1)Nc1ccc(Cl)cc1 | – | > 33.9 | > 33.9 µM |
| CC(C)(CN1CCCCC1)C(=O)/C=C/c1ccc(Br)cc1 | – | > 129 | 1.7 µM |
| Cc1nnc2sc3ccccc3n12 | inactive | – | – |
| CCN(CC)CCC(=O)c1ccc(Cl)cc1 | – | > 912 | 12.3 µM |
| O=CC[C@H]1C(=O)C[C@@H]2CCC[C@@H]21 | – | > 794 | 44.7 µM |
| O=C(CC/C(CC(=O)c1ccc(Cl)cc1)=N/O)Nc1ccc(Cl)c(Cl)c1 | – | > 437 | > 437 µM |
| CN(C)c1cccc(NC2=NCCO2)c1 | – | > 200 | 33.9 µM |
| Cc1cn(C2C/C(=N\O)C(CO)O2)c(=O)[nH]c1=O (stereo not drawn) | – | 12.6 | 174 µM |
| CC(=O)NC1CC2Oc3ccc(C)cc3C(C)(O2)C1O (stereo not drawn) | inactive | – | – |
| C=CCOc1ccc(C2C(C(=O)OCC)C(=O)CC(C)(O)C2C(=O)OCC)cc1OC (stereo not drawn) | – | > 200 | > 200 µM |
| CC1=C(C(=O)NCc2ccccc2)C(c2ccc(C3C(C(=O)NCc4ccccc4)=C(C)NC(C)=C3C(=O)NCc3ccccc3)cc2)C(C(=O)NCc2ccccc2)=C(C)N1 | – | > 12 | 7.94 µM |
| Cc1c(NC(=O)CSC(=S)N2CCN(Cc3ccccc3)CC2)c(=O)n(-c2ccccc2)n1C | inactive | – | – |
| CC(NCCNC(C)C(=O)O)C(=O)O (stereo not drawn) | – | > 676 | > 676 µM |
| COC(=O)C(Cc1c[nH]c2ccccc12)NC(=O)C(Cc1c[nH]c2ccccc12)NC(=O)C(Cc1c[nH]c2ccccc12)NC(=O)C(Cc1c[nH]c2ccccc12)NC(=O)C(Cc1c[nH]c2ccccc12)NC(=O)OC(C)(C)C (stereo not drawn) (Boc-WWWWW-OMe; configuration not given here) | – | > 200 | 27.5 µM |
| OC1C2[C@@H](O)CCCN2C[C@@H](O)[C@H]1O (stereo partly drawn) | – | > 200 | > 200 µM |
| O=C(Nc1ccc(CCC2=NCCCN2)cc1)c1ccc(C(=O)Nc2ccc(CCC3=NCCCN3)cc2)cc1 | – | 42.7 | 158 µM |
| CCOC(=O)C1(C#N)OC(=O)c2cnccc21 (stereo not drawn) | – | > 200 | > 200 µM |

| Structure (SMILES) | outcome | EC50 [µM] | IC50 |
| --- | --- | --- | --- |
| CC1=C(C(=O)Nc2ccc(Cl)c(C(=O)OC(C)C)c2)SCCO1 | – | 0.398 | 74.1 µM |
| NCCSc1nc2ccccc2c(=O)n1-c1ccccc1 | – | > 200 | 30.2 µM |
| CC(C(=O)O)C(C)(C)C(=O)O (stereo not drawn) | – | > 200 | > 200 µM |
| O=C1c2cccc3cccc(c23)C(=O)N1Cc1ccccc1 | – | > 200 | 61.7 µM |
| CC(=O)c1cccc(NC(=O)/C(=N\NC(C)(C)C)c2c(O)c3ccccc3oc2=O)c1 | – | > 589 | 257 µM |
| COC1CC2(C[Si](C)(C)C)OC(=O)OC2C(C)O1 (stereo not drawn) | inactive | – | – |
| CCCCCC(/C=N/Nc1ccccc1)C(O)(C(F)(F)F)C(F)(F)F (stereo not drawn) | – | > 200 | 105 µM |
| O=C(O)c1cc(CCc2cc(O)ccc2O)ccc1O | – | > 182 | 28.8 µM |
| O=C(O)c1ccccc1S | – | > 200 | > 200 µM |
| Cc1cc2c(cc1-c1cc3c(cc1C)C(C(C)C)=C(O)C(=O)/C3=C\Nc1c3ccccc3nc3ccccc13)/C(=C/Nc1c3ccccc3nc3ccccc13)C(=O)C(O)=C2C(C)C | – | > 100 | 1.74 µM |
| O=C(OCCc1ccccc1)c1ccc2cc(O)c(O)cc2c1 | – | > 31.6 | 12.9 µM |
| Nc1ncnc2c1ncn2C1C(=O)C(CO)C1CO (stereo not drawn) | – | > 234 | > 234 µM |
| O=c1oc2c(-c3c(O)c(=O)oc4ccccc34)cc(O)cc2s1 | – | > 209 | 97.7 µM |
| CC12CN3CC(C)(C1=O)C(=O)C(C)(C3)C2=O | – | > 117 | > 117 µM |
| N/C(CCSCCSCC/C(N)=N\O)=N\O | – | > 200 | > 200 µM |
| CCCCCCCCCCCCCCNCC(OCC)OCC | – | > 200 | 9.33 µM |
| COc1ccc(/C=C2\CCOC2=O)cc1OC | – | > 776 | 282 µM |
| O=C(Nc1ccc(Sc2ccc(N=Nc3c(O)c(S(=O)(=O)O)cc4cc(S(=O)(=O)O)ccc34)cc2)cc1)c1ccc(N=Nc2cc(S(=O)(=O)O)c3ccccc3c2O)cc1 | inactive | – | – |
| NC(Cc1ccc(S(=O)(=O)O)cc1)C(=O)NC(Cc1ccc(S(=O)(=O)O)cc1)C(=O)NC(Cc1ccc(S(=O)(=O)O)cc1)C(=O)NC(Cc1ccc(S(=O)(=O)O)cc1)C(=O)O (stereo not drawn) | – | > 200 | > 200 µM |
| c1ccc(CSP234N5CCN2CCN3CCN4CC5)c(CSP234N5CCN2CCN3CCN4CC5)c1 | – | > 100 | 39.8 µM |
| CC(C)C1=C(O)C2=C(C(=O)C1=O)C1(C)CCCC(C)(C)C1CC2O (stereo not drawn) | – | > 200 | 14.5 µM and 13.8 µM |
